Laboratory results reported in US20240207253A1, “Inhibitors of CDR1 for Reversal of Azole Drug Resistance in Fungal Infections” (UNM RAINFOREST INNOVATIONS, priority 2021, published 2024).

Key:
[1] = test system: C. albicans strain 5674; test: Adenylate kinase (AK) release assay on assay supernatant; assay type: cell-based; conditions: caspofungin 50 ng/ml, positive control
Method: In addition to the output from the dose-response assays, we included an experimental step designed to identify compounds with fungicidal potential. Specifically, the inventors used the assay supernatant to interrogate for the presence of adenylate kinase (AK), an enzyme that is released from the cells when the cell wall or plasma membrane integrity is compromised. Low-dose caspofungin (50 ng/ml), an echinocandin known for its antifungal property due to disruption of the cell wall, was used as a positive control.

[2] = test system: C. glabrata AR Bank #0314; test: CLSI microbroth dilution checkerboard assay with fluconazole; assay type: cell-based; conditions: Nakaseomyces glabratus; fluconazole alone
Method: (§1) Overexpression of Cdr1p has been implicated in azole resistance in many fluconazole-resistant fungal pathogens. […] The inventors used the CLSI microbroth dilution method of antifungal susceptibility testing in a checkerboard assay format, where serial 2-fold dilutions of FLC (from 64 μg/ml) were tested in combination with serial 2-fold dilutions of a candidate hit compound (from 50 μg/ml). […] The data from three biological replicates was next used to assess synergy between each compound of interest and FLC. For these purposes, the inventors used the program SynScreen, which extrapolates non-linear fits of dose-response data to determine synergy using the Bliss independence and Loewe additivity analysis models. […] The Bliss Beta coefficient that the program calculates for all combinations further describes potential synergism (if >1), antagonism (if <1), or an additive effect (equal to 1).
(§2) For the purposes of reporting the effect of the test compound on FLC potentiation, the inventors excluded from analyses rows of combinations where TPIML compound alone affects yeast growth. C. krusei are intrinsically resistant to azoles and is predominantly due to a significant reduction of inhibition of the target, cytochrome P450 lanosterol 14α-demethylase, though the role of increased expression of the CaCdr1p homolog in resistance has also been described.

[3] = test system: C. krusei reference strain, ATCC 6258; test: as above; assay type: cell-based; conditions: Pichia kudriavzevii, ATCC6258; fluconazole alone
Method: as §1, §2

[4] = test system: C. parapsilosis AR Bank #0337; test: as above; assay type: cell-based; conditions: Lodderomyces parapsilosis; fluconazole alone
Method: as §1, §2

[5] = test system: Cdr1p-GFP; test: Cdr1p-GFP whole cell fluorescence-based flow cytometry assay (primary screen and dose response); parameters: species or system C. albicans; conditions: 10 μM, positive control, isolate 5674 CDR1-GFP
Text: Utilizing the novel approach of inhibition of CDR1 (Cdr1p) expression, initial experiments were directed to screening libraries of small molecules using a high-throughput whole cell fluorescence-based flow cytometry assay to identify agents that inhibit expression of CDR1-GFP in an azole-resistant C. albicans strain.
Each sample in the scaffold ranking screen contains only mixtures of compounds with the shared core scaffold. All compounds in a specific mixture are represented in approximately equal molar concentrations. The inventors performed the screen using the C. albicans azole-resistant, clinical isolate 5674, which was modified to carry a CDR1 allele tagged with GFP-encoding sequence. Modulation of Cdr1p-GFP levels in response to scaffold mixtures was assessed relative to basal levels (Response Ratio), from which scaffolds were ranked. […] The inventors used tacrolimus at 10 μM concentration as positive control in all screening assays.
The assay readout, GFP fluorescence levels as detected by a flow cytometer, is directly related to the levels of Cdr1p of the cell. Thus, flow cytometry data from each screen provides direct evidence that Cdr1p is modulated by hit compounds. […] False-positive hits were identified in follow-up dose-response assays where the effect of serial dilutions of each compound on Cdr1p-GFP levels was assessed.

`CC[C@H](C)C[C@H](C)CCCCCCCCC(=O)N[C@H]1C[C@@H](O)[C@@H](NCCN)NC(=O)[C@@H]2[C@@H](O)CCN2C(=O)[C@H]([C@H](O)CCN)NC(=O)[C@H]([C@H](O)[C@@H](O)c2ccc(O)cc2)NC(=O)[C@@H]2C[C@@H](O)CN2C(=O)[C@H]([C@@H](C)O)NC1=O` [caspofungin] gave an AK fold-increase [1] of 27.

In the case of `OC(Cn1cncn1)(Cn1cncn1)c1ccc(F)cc1F` [fluconazole], the MIC50 [2] is reported as 64 µg/mL, the MIC50 [3] is reported as 8 µg/mL and the MIC50 [4] is reported as 64 µg/mL.

In the case of `C=CC[C@@H]1/C=C(\C)C[C@H](C)C[C@H](OC)[C@H]2O[C@@](O)(C(=O)C(=O)N3CCCC[C@H]3C(=O)O[C@H](/C(C)=C/[C@@H]3CC[C@@H](O)[C@H](OC)C3)[C@H](C)[C@@H](O)CC1=O)[C@H](C)C[C@@H]2OC` [tacrolimus], the “Response Ratio (Cdr1p-GFP levels relative to basal levels)” value [5] is reported as 0.8.
